We go through 5 compounds from patent US9023789B2, “Amylin analogs and pharmaceutical compositions thereof” (Novo Nordisk A/S, priority 2012, dated 2015).

Numbered stars: 1 amine (or outer) side, 2 acyl side, 3 side chain; on linkers, the order of the positions; unused ones are H or OH. Bridge positions count the residues as written; N and C are the ends. Side chains are listed from the residue outwards. Peptide text beside a SMILES is read from it. * marks the point of attachment. C20 diacid = O=C(O)CCCCCCCCCCCCCCCCCCC(=O)*; γGlu = O=C(O)[C@H](CCC(=O)[*:2])N[*:1]

Experiment [1] deals with T1, human calcitonin receptor (Homo sapiens, UniProt P30988).
T1 construct: expressed in transfected cells
T1 sequence (P30988 25-474): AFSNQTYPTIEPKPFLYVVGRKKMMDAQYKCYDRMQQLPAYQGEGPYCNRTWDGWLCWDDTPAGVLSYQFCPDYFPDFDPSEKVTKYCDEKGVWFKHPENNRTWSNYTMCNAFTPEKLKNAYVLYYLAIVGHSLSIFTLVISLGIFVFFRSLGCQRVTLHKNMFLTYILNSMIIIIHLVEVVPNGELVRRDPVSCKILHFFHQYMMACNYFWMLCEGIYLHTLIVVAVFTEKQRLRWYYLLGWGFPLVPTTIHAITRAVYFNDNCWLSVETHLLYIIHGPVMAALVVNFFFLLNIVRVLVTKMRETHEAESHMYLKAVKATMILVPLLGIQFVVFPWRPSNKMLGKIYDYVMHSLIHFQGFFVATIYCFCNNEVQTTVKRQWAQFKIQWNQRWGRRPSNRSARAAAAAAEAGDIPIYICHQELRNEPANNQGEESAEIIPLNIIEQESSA
Briefly: ASSAY (VII) binding to the human calcitonin receptor (SPA, 125I-Calcitonin).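 Note: cell membranes (35 ng/µL) combined with SPA beads in 40 µL of pH 7.4 Hepes buffer, 384-well format, signal counted on a TopCounter instrument.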 The conditions noted are these: read-out: hCTR bind IC50.

Experiment [2] concerns the target T2, human calcitonin (a) receptor in BHK570 cells (Homo sapiens, UniProt P30988).
T2 construct: expressed in transfected cells
T2 sequence (P30988 25-474): T1 sequence (P30988 25-474)
Briefly: ASSAY (II)a functional assay, human calcitonin receptor (CRE luciferase). The conditions noted are these: read-out: hCTR funct. EC50. It is filed as cell-based. A digest of the protocol: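 Readout is luminescence from a cAMP-responsive CRE-luc reporter, developed with LucLite for 30 min at room temperature. Cells were treated for 3 h at 37 °C in 10% FBS/DMEM buffered with 10 mM Hepes (pH 7.4).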

The target of experiment [3] is T3, rat amylin receptor (rat calcitonin receptor + rat RAMP 3) (Rattus norvegicus, UniProt P32214+Q9JJ73).
T3 construct: expressed in transfected cells; host or cells: BHK tk'ts 13 (transient, FuGENE 6), membranes
T3 sequence (P32214 25-479 isoform P32214-2 limits assumed): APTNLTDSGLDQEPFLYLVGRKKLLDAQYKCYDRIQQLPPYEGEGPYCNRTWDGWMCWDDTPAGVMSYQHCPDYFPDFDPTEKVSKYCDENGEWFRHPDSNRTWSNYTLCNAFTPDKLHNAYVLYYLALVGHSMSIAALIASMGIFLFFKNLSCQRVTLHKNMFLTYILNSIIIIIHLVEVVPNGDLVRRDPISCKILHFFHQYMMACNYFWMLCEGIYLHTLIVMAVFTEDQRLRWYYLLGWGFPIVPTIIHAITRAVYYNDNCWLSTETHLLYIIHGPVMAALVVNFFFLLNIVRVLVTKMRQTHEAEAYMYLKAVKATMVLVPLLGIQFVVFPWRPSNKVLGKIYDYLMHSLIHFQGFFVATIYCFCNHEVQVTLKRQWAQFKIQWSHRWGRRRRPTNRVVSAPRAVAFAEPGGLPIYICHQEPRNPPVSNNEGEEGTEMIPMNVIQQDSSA
T3 sequence (Q9JJ73 23-147 partner): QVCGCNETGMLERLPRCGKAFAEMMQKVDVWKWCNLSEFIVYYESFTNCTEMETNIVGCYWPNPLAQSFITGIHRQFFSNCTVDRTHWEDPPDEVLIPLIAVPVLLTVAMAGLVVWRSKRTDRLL
The experiment in a line: ASSAY (VI) binding to the rat amylin receptor. The gist of the method:
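Membranes for this rat amylin receptor binding assay came from BHK tk′ts 13 cells. The cells were transiently transfected with rat calcitonin receptor using the FuGENE® 6 reagent from Roche, as the manufacturer recommends. The cells were collected approximately 48 hours after transfection, and membranes were then prepared.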

The mark [4] stands for this setting: Table 7, rat binding selectivity, rCTR IC50 / rAmylin-R IC50.

As for `CC[C@H](C)[C@H](NC(=O)[C@H](C)NC(=O)CNC(=O)[C@H](Cc1ccccc1)NC(=O)[C@H](CC(N)=O)NC(=O)[C@@H]1CCCN1C(=O)[C@H](CO)NC(=O)[C@H](CO)NC(=O)[C@H](Cc1c[nH]cn1)NC(=O)[C@H](CCCNC(=N)N)NC(=O)[C@H](CC(C)C)NC(=O)[C@H](Cc1ccccc1)NC(=O)[C@H](CC(=O)O)NC(=O)[C@H](C)NC(=O)[C@H](CC(C)C)NC(=O)[C@H](CCCNC(=N)N)NC(=O)[C@H](CCC(N)=O)NC(=O)[C@@H](NC(=O)[C@H](C)NC(=O)[C@@H]1CSSC[C@H](NC(=O)[C@H](CCCCN)NC(=O)CC[C@H](NC(=O)CCCCCCCCCCCCCCCCCCC(=O)O)C(=O)O)C(=O)N[C@@H](CC(N)=O)C(=O)N[C@@H]([C@@H](C)O)C(=O)N[C@@H](C)C(=O)N[C@@H]([C@@H](C)O)C(=O)N1)[C@@H](C)O)C(=O)N1CCC[C@H]1C(=O)N[C@@H](CO)C(=O)N[C@@H](CO)C(=O)N[C@H](C(=O)N[C@@H](CC(N)=O)C(=O)N[C@H](C(=O)NCC(=O)N[C@@H](CO)C(=O)N[C@@H](CC(N)=O)C(=O)N[C@H](C(=O)N1CCC[C@H]1C(N)=O)[C@@H](C)O)C(C)C)[C@@H](C)O` [Example 10] ({C20 diacid-γGlu}-KCNTATCATQRLADFLRHSSPNFGAIPSSTNVGSNTP-NH2; disulfide 2-7 (inferred)), the IC50 in experiment [1] was 0.099 nM. For the same compound, the EC50 in experiment [2] stood at 0.07 nM.

Consider `CC[C@H](C)[C@H](NC(=O)[C@H](C)NC(=O)CNC(=O)[C@H](Cc1ccccc1)NC(=O)[C@H](CC(N)=O)NC(=O)[C@@H]1CCCN1C(=O)[C@H](CO)NC(=O)[C@H](CO)NC(=O)[C@H](Cc1c[nH]cn1)NC(=O)[C@H](CCCNC(=N)N)NC(=O)[C@H](CC(C)C)NC(=O)[C@H](Cc1ccccc1)NC(=O)[C@H](CCC(=O)O)NC(=O)[C@H](C)NC(=O)[C@H](CC(C)C)NC(=O)[C@H](CCCNC(=N)N)NC(=O)[C@H](CCC(N)=O)NC(=O)[C@@H](NC(=O)[C@H](C)NC(=O)[C@@H]1CSSC[C@H](NC(=O)[C@H](CCCCN)NC(=O)CC[C@H](NC(=O)CC[C@H](NC(=O)CCCCCCCCCCCCCCCCCCC(=O)O)C(=O)O)C(=O)O)C(=O)N[C@@H](CC(N)=O)C(=O)N[C@@H]([C@@H](C)O)C(=O)N[C@@H](C)C(=O)N[C@@H]([C@@H](C)O)C(=O)N1)[C@@H](C)O)C(=O)N1CCC[C@H]1C(=O)N[C@@H](CO)C(=O)N[C@@H](CO)C(=O)N[C@H](C(=O)N[C@@H](CC(N)=O)C(=O)N[C@H](C(=O)NCC(=O)N[C@@H](CO)C(=O)N[C@@H](CC(N)=O)C(=O)N[C@H](C(=O)N[C@@H](Cc1ccc(O)cc1)C(N)=O)[C@@H](C)O)C(C)C)[C@@H](C)O` [Example 15] ({C20 diacid-γGlu-γGlu}-KCNTATCATQRLAEFLRHSSPNFGAIPSSTNVGSNTY-NH2; disulfide 2-7 (inferred)), for which the 50% inhibitory concentration (IC50) in experiment [1] stood at 15.5 nM. Besides, the concentration giving a half-maximal response (EC50) in experiment [2] is 3.43 nM.

For the compound `CC[C@H](C)[C@H](NC(=O)[C@H](C)NC(=O)CNC(=O)[C@H](Cc1ccccc1)NC(=O)[C@H](CC(N)=O)NC(=O)[C@@H]1CCCN1C(=O)[C@H](CO)NC(=O)[C@H](CO)NC(=O)[C@H](Cc1c[nH]cn1)NC(=O)[C@H](CCCNC(=N)N)NC(=O)[C@H](CC(C)C)NC(=O)[C@H](Cc1ccccc1)NC(=O)[C@H](CCC(=O)O)NC(=O)[C@H](C)NC(=O)[C@H](CC(C)C)NC(=O)[C@H](CCCNC(=N)N)NC(=O)[C@H](CCC(N)=O)NC(=O)[C@@H](NC(=O)[C@H](C)NC(=O)[C@@H]1CSSC[C@H](NC(=O)[C@H](CCCCN)NC(=O)CC[C@H](NC(=O)CCCCCCCCCCCCCCCCCCC(=O)O)C(=O)O)C(=O)N[C@@H](CC(N)=O)C(=O)N[C@@H]([C@@H](C)O)C(=O)N[C@@H](C)C(=O)N[C@@H]([C@@H](C)O)C(=O)N1)[C@@H](C)O)C(=O)N1CCC[C@H]1C(=O)N[C@@H](CO)C(=O)N[C@@H](CO)C(=O)N[C@H](C(=O)N[C@@H](CC(N)=O)C(=O)N[C@H](C(=O)NCC(=O)N[C@@H](CO)C(=O)N[C@@H](CC(=O)O)C(=O)N[C@H](C(=O)N1CCC[C@H]1C(N)=O)[C@@H](C)O)C(C)C)[C@@H](C)O` [Example 11] ({C20 diacid-γGlu}-KCNTATCATQRLAEFLRHSSPNFGAIPSSTNVGSDTP-NH2; disulfide 2-7 (inferred)), in experiment [1], the IC50 is 0.101 nM. The EC50 in experiment [2] was found to be 0.112 nM.

As for `CC[C@H](C)[C@H](NC(=O)[C@H](C)NC(=O)CNC(=O)[C@H](Cc1ccccc1)NC(=O)[C@H](CC(N)=O)NC(=O)[C@@H]1CCCN1C(=O)[C@H](CO)NC(=O)[C@H](CO)NC(=O)[C@H](Cc1c[nH]cn1)NC(=O)[C@H](CCCNC(=N)N)NC(=O)[C@H](CC(C)C)NC(=O)[C@H](Cc1ccccc1)NC(=O)[C@H](CCC(=O)O)NC(=O)[C@H](C)NC(=O)[C@H](CC(C)C)NC(=O)[C@H](CCCNC(=N)N)NC(=O)[C@H](CCC(N)=O)NC(=O)[C@@H](NC(=O)[C@H](C)NC(=O)[C@@H]1CSSC[C@H](NC(=O)[C@@H](N)CCCCNC(=O)CC[C@H](NC(=O)CCCCCCCCCCCCCCCCCCC(=O)O)C(=O)O)C(=O)N[C@@H](CC(N)=O)C(=O)N[C@@H]([C@@H](C)O)C(=O)N[C@@H](C)C(=O)N[C@@H]([C@@H](C)O)C(=O)N1)[C@@H](C)O)C(=O)N1CCC[C@H]1C(=O)N[C@@H](CO)C(=O)N[C@@H](CO)C(=O)N[C@H](C(=O)N[C@@H](CC(N)=O)C(=O)N[C@H](C(=O)NCC(=O)N[C@@H](CO)C(=O)N[C@@H](CC(N)=O)C(=O)N[C@H](C(=O)N1CCC[C@H]1C(N)=O)[C@@H](C)O)C(C)C)[C@@H](C)O` [Example 12] (H-K([γGlu-C20 diacid])CNTATCATQRLAEFLRHSSPNFGAIPSSTNVGSNTP-NH2; disulfide 2-7 (inferred); N-terminus assumed), the “Ratio rCT/rAmylin binding” value in experiment [3] (setting [4]) is on record as 5.0.

As to `CC[C@H](C)[C@H](NC(=O)[C@H](C)NC(=O)CNC(=O)[C@H](Cc1ccccc1)NC(=O)[C@H](CC(N)=O)NC(=O)[C@@H]1CCCN1C(=O)[C@H](CO)NC(=O)[C@H](CO)NC(=O)[C@H](Cc1c[nH]cn1)NC(=O)[C@H](CCCNC(=N)N)NC(=O)[C@H](CC(C)C)NC(=O)[C@H](Cc1ccccc1)NC(=O)[C@H](CC(N)=O)NC(=O)[C@H](C)NC(=O)[C@H](CC(C)C)NC(=O)[C@H](CCCNC(=N)N)NC(=O)[C@H](CCC(N)=O)NC(=O)[C@@H](NC(=O)[C@H](C)NC(=O)[C@@H]1CSSC[C@H](NC(=O)[C@@H](N)CCCCNC(=O)COCCOCCNC(=O)COCCOCCNC(=O)CC[C@H](NC(=O)CCCCCCCCCCCCCCCCCCC(=O)O)C(=O)O)C(=O)N[C@@H](CC(N)=O)C(=O)N[C@@H]([C@@H](C)O)C(=O)N[C@@H](C)C(=O)N[C@@H]([C@@H](C)O)C(=O)N1)[C@@H](C)O)C(=O)N1CCC[C@H]1C(=O)N[C@@H](CO)C(=O)N[C@@H](CO)C(=O)N[C@H](C(=O)N[C@@H](CC(N)=O)C(=O)N[C@H](C(=O)NCC(=O)N[C@@H](CO)C(=O)N[C@@H](CCC(=O)O)C(=O)N[C@H](C(=O)N[C@@H](Cc1ccc(O)cc1)C(N)=O)[C@@H](C)O)C(C)C)[C@@H](C)O` [Example 25], the half-maximal inhibitory concentration (IC50) in experiment [3] (Table 7, binding to rat amylin receptor, read-out: rAmylin-R bind IC50) worked out at 3.48 nM. Also, the “Ratio rCT/rAmylin binding” value worked out at 37.7 in experiment [3] (setting [4]); 37.7 in experiment [3] (Table 7a (preferred compounds), rat binding selectivity, rCTR IC50 / rAmylin-R IC50); 37.7 in experiment [3] (ratio of rCTR bind IC50 to rAmylin-R bind IC50).
